Laboratory results from US10717968B2, “Polymerases for nucleotide analogue incorporation” (Pacific Biosciences of California, Inc., priority 2005, dated 2020).

Key:
Assay type in all cases: biochemical
[1] = system: natural (native) nucleotides; test: Initial characterization: specific activity with natural (native) nucleotides
Description: The recombinant polymerase is initially evaluated on the quality of the protein preparation and basic catalytic activity. The polymerase's activity is analyzed with natural (native) nucleotides, and its specific activity (units/mg) is determined. Only catalytically competent mutants are selected for the next steps.

dTTP, dATP, dGTP = test: Assay with three native nucleotides (dGTP, dTTP and dATP); conditions: three native nucleotides at 20 μM; circular template, no G residues
Description: (§1) The Φ29 DNA polymerase (parental enzyme or mutant) was preincubated with DNA template (72 nucleotide circular DNA including mostly repetitive sequence AGTC) with annealed DNA primer. The preincubation mix includes three native nucleotides (dTTP, dATP and dGTP) and a terminal labeled nucleotide analogue (A488dC4P or A568dC4P) at 10 μM concentration. After a short preincubation, the reaction was started with MnCl2. The reaction was stopped with EDTA, and the products were separated using agarose gel electrophoresis and stained with SYBR Gold (Invitrogen). The average length of the DNA generated with DNA polymerase was determined and used to estimate the polymerization rate. See, e.g., Table 2 Columns G and H.
The Φ29 DNA polymerase (parental enzyme or mutant) was preincubated with DNA template (circular DNA including mostly repetitive sequence CAT, no G residues) with annealed DNA primer; the preincubation mix includes three native nucleotides (dTTP, dATP and dGTP). All subsequent steps were basically as described above in the section entitled “Assay with a single analogue at low concentration (10 μM) and three native nucleotides.” See, e.g., Table 2 Column B.

A488dC4P [2] = test: Nucleotide analogue concentration dependence of the polymerization rate, A488dC4P; conditions: for A488dC4P, kel / Km: circular AGTC template, dTTP, dATP, dGTP 20 μM each; for Km as % of the Km of N62D Φ29 for A488dC4P: relative to N62D Φ29, from Table 2
Description: (§2) The most promising polymerase mutants are characterized by determination of the polymerization rate and Km for A488dC4P and A568dC4P and a subset of natural nucleotides (dATP, dGTP and dTTP), using a circular template (AGTC). Velocity is measured at several different concentrations of the analogs, A488dC4P (a representative good substrate) and A568dC4P (a representative less preferred substrate).
(§3) The Φ29 DNA polymerase (parental enzyme or mutant) was preincubated with a DNA template (72 nucleotide circular DNA including mostly repetitive sequence AGTC) with annealed DNA primer. The preincubation mix includes also three native nucleotides (dTTP, dATP and dGTP 20 μM each) and various concentrations of the terminally labeled analogue (A488dC4P or A568dC4P). All subsequent steps were basically as described above in the section entitled “Assay with a single analogue at low concentration (10 μM) and three native nucleotides.” An average length of the DNA products generated with DNA polymerase at an individual analogue concentration was determined, and the results were fitted with the equation k=kel*[S]*(Kd+[S])^−1 where k is the observed polymerization rate, kel is the polymerization rate at saturating substrate concentration (kel measures incorporation of multiple residues), and [S] is substrate concentration. See, e.g., Table 2 Columns C, D, E, and F.

A568dC4P [3] = test: Nucleotide analogue concentration dependence of the polymerization rate, A568dC4P; conditions: for A568dC4P, kel / Km: circular AGTC template, dTTP, dATP, dGTP 20 μM each; for Km as % of the Km of N62D Φ29 for A568dC4P: relative to N62D Φ29, from Table 2
Description: as §2, §3

A488dC4P [4] = test: Assay with a single analogue at low concentration (10 μM) and three native nucleotides, A488dC4P; conditions: single analogue at 10 μM and three native nucleotides
Description: as §1

A568dC4P [5] = test: Assay with a single analogue at low concentration (10 μM) and three native nucleotides, A568dC4P; conditions: single analogue at 10 μM and three native nucleotides
Description: as §1

[6] = system: A488dA4P, A633dC4P, A546dG4P, A594dT4P; test: Assay with four terminally labeled nucleotide analogs; conditions: four terminally labeled analogs all at 10 μM
Description: Polymerization rate (bases/min) with four analogues at 10 μM (A488dA4P, A633dC4P, A546dG4P and A594dT4P) and circular template (AGTC, a 72mer circular template largely consisting of a repeating AGTC motif) is determined.
The procedure is basically as described above in the section entitled “Assay with a single analogue at low concentration (10 μM) and three native nucleotides,” with the exception that in this assay all nucleotides are terminally labeled (A488dA4P, A633dC4P, A546dG4P, A594dT4P all at 10 μM). See, e.g., Table 2 Column I.

[7] = system: DNA template (72 nucleotide circular DNA) with annealed DNA primer; test: Processivity assay; conditions: dNTP, MnCl2, heparin trap, 20 min; 1.0 minus Poff
Description: The processivity (dissociation/kb) of the polymerase is estimated in a primer extension reaction performed in the presence of “Trap” (unlabeled competitor DNA or heparin). The processivity assay is designed to select mutants that retain the capability to synthesize a long DNA product in a continuous polymerization run (without polymerization reinitiation) with natural nucleotides. Mutants with a significant decrease in processivity are not selected for the next step.
The Φ29 DNA polymerase (parental enzyme or mutant) was preincubated with DNA template (72 nucleotide circular DNA including mostly repetitive sequence AGTC) with annealed DNA primer. After a short preincubation, the reaction was started with a starting mix including MnCl2, dNTP and heparin. Including the heparin in the reaction prevents polymerization from reinitiating after the polymerase dissociates from the template/primer, so that all generated DNA products are a result of continuous polymerization runs. After 20 min incubation, the reaction was stopped with EDTA and the products were separated using agarose gel electrophoresis and stained with SYBR Gold (Invitrogen). The DNA products were analyzed basically as described in Bibillo A, Eickbush T H. J Biol Chem. 2002 Sep. 20; 277(38):34836-45, Epub 2002 Jul. 5. The results were fitted with single exponential equation A*exp(−Poff*kb) where A is amplitude, Poff is the probability of premature polymerase dissociation, and kb is DNA length (1000 nucleotides). The probability of chain elongation (processivity) can be readily calculated by subtracting the Poff value from 1.0. See, e.g., Table 2 Column J.

Alexa633-O-dC4P = test: Km and Vmax versus analogue Alexa633-O-dC4P; conditions: Alexa633-O-dC4P (A633dC4P)
Description: (§4) Km and Vmax were determined for exemplary recombinant Phi29 polymerases and various nucleotide analogues.

Alexa555-C2-dT4P = test: Km and Vmax versus analogue Alexa555-C2-dT4P
Description: as §4

A633dC4P = test: Screening: rate with A633dC4P and dA, dG, dTTP; conditions: for Rate High: 25 μM A633dC4P with 20 μM dA; for Ratio (Low/High): (rate at 5 μM A633dC4P)/(rate at 25 μM A633dC4P), each with 20 μM dA, 1 mM MnCl2, higher ratio = lower Km
[8] = system: Alexa488-O-dA4P, FAM-Alexa532-O-dG4P, FAM-Alexa594-O-dT4P, Alexa633-O-dC4P; test: Screening: rate with set of four nucleotide analogues; conditions: four analogues at 10 μM each, 1 mM MnCl2
Alexa532-O-dG4P = test: Km and Vmax versus analogue Alexa532-O-dG4P
Description: as §4

A594-dT4P = test: FRET stopped flow assay, rates of binding and product release; conditions: nucleotide analogue A594-dT4P
Description: Rates of binding and product release were determined for exemplary recombinant Phi29 polymerases with nucleotide analogue A594-dT4P using a FRET stopped flow assay as schematically illustrated in FIG. 7A. Results are depicted graphically in FIGS. 7B-D for Phi29 N62D (FIG. 7B), N62D:E375Y (FIG. 7C), and N62D:E375W (FIG. 7D).

Alexa568-dA4P = test: FRET stopped flow assay, branching rate; conditions: dideoxy-terminated primer, native dATP trap
Description: Relative branching rate (dissociation of the analogue without incorporation, i.e., substrate dissociation) was also determined for exemplary recombinant Phi29 polymerases with nucleotide analogue Alexa568-dA4P (also called A568-dA4P), using a FRET stopped flow assay as schematically illustrated in FIG. 8A. In this technique, a template with a FRET donor dye compatible for FRET with the corresponding dye on the nucleotide analogue is employed. The primer has a dideoxy-termination at the 3′ end to prevent incorporation. The analogue is pre-mixed with the enzyme-template-dideoxy primer complex. In the stopped flow apparatus, this preformed complex is rapidly mixed with the corresponding native nucleotide (native dATP, in this example) in excess which serves as a “trap” to prevent rebinding of the analogue after it dissociates. The increase in donor dye fluorescence is monitored as a means of monitoring the dissociation/branching rate of the analogue.

Row | Product Release Rate (A594-dT4P) [s⁻¹] | Substance | Specific Activity [1] | dTTP, dATP, dGTP (no G fork) V at 20 μM (dTTP, dATP, dGTP) | A488dC4P, kel (A488dC4P [2]) [bp/min] | Km (A488dC4P [2]) [µM] | Km as % of the Km of N62D Φ29 for A488dC4P (A488dC4P [2]) | A568dC4P, kel (A568dC4P [3]) | Km (A568dC4P [3]) [µM] | Km as % of the Km of N62D Φ29 for A568dC4P (A568dC4P [3]) | A488dC4P, V at 10 μM (A488dC4P [4]) | A568dC4P, V at 10 μM (A568dC4P [5]) | A488dA4P, A633dC4P, A546dG4P, A594dT4P, V at 10 μM [6] | Processivity [7] [kb^−1] | Km (Alexa633-O-dC4P) [µM] | Km (Alexa555-C2-dT4P) [µM] | Rate High (A633dC4P) | Ratio (Low/High) (A633dC4P) | Hz Rate [8] [Hz] | Km (Alexa532-O-dG4P) [µM] | Branching Rate (Alexa568-dA4P) [s⁻¹] | further results
1 | 76 | N62D: E375W: Phi29 polymerase with E375W and N62D mutations | – | – | – | – | – | – | – | – | – | – | – | – | 1.8 | 5 | 699.4 | 0.677 | 19.1 | 16 | 43 | rates of binding and product release compared with the parent enzyme (A594-dT4P): increased rates of binding and product release
2 | 117 | N62D: E375Y: Phi29 polymerase with E375Y and N62D mutations | – | – | – | – | – | – | – | – | – | – | – | – | 2.5 | 6.6 | 498.5 | 0.694 | 12.1 | 18 | 31 | rates of binding and product release compared with the parent enzyme (A594-dT4P): increased rates of binding and product release
3 | 55 | N62D: N62D Phi29 DNA polymerase, parent enzyme in Tables 4, 6 and 7; tag not stated [reference compound] | – | – | – | – | – | – | – | – | – | – | – | – | 23 | 20 | – | – | – | 68 | 90 | –

The remaining lines, values behind:

Row | Substance | Product Release Rate (A594-dT4P) [s⁻¹] | Specific Activity [1] | dTTP, dATP, dGTP (no G fork) V at 20 μM (dTTP, dATP, dGTP) | A488dC4P, kel (A488dC4P [2]) [bp/min] | Km (A488dC4P [2]) [µM] | Km as % of the Km of N62D Φ29 for A488dC4P (A488dC4P [2]) | A568dC4P, kel (A568dC4P [3]) | Km (A568dC4P [3]) [µM] | Km as % of the Km of N62D Φ29 for A568dC4P (A568dC4P [3]) | A488dC4P, V at 10 μM (A488dC4P [4]) | A568dC4P, V at 10 μM (A568dC4P [5]) | A488dA4P, A633dC4P, A546dG4P, A594dT4P, V at 10 μM [6] | Processivity [7] [kb^−1] | Km (Alexa633-O-dC4P) [µM] | Km (Alexa555-C2-dT4P) [µM] | Rate High (A633dC4P) | Ratio (Low/High) (A633dC4P) | Hz Rate [8] [Hz] | Km (Alexa532-O-dG4P) [µM] | Branching Rate (Alexa568-dA4P) [s⁻¹] | further results
4 | His-E375H-N62D: Phi 29 polymerase with E375H and N62D mutations (SEQ ID NOs:4, 25) | – | 10,945,000 units/mg | 780 | 950 | 8 | about 40% | 930 | 11 | about 15% | 411 | 366 | 123 | 0.9510 | 17 | 15 | 510.1 | 0.445 | 9.4 | – | – | –
5 | His-E375S-N62D: Phi 29 polymerase with E375S and N62D mutations (SEQ ID NOs:5, 26) | – | 10,961,000 units/mg | 940 | 1190 | 15 | about 75% | 1300 | 28 | about 38% | 420 | 332 | 74 | 0.9815 | 16.5 | – | 528.4 | 0.335 | 5.9 | 40 | – | –
